Source: ChEMBL document CHEMBL5725427, “7-hydroxy-indolinyl antagonists of P2Y1 receptor” (2017)

Target: P2Y purinoceptor 1 (Homo sapiens, UniProt P47900)
Assay: Scintillation Proximity Assay (SPA): A SPA membrane binding assay was used to identify inhibitors of [33P] […] Binding reactions were performed in 384-well OptiPlates (PerkinElmer Life Sciences, Cat #6007299) in a volume of 50 μL containing 15 fmol of P2Y1 receptor (1.7 μg of total protein), 0.3 nM [33P] […] Reactions were allowed to proceed to completion at room temperature for 1 hour followed by centrifugation of the plate for 5 min. About 40 μL of the aqueous solution was aspirated. Plates were sealed and the [33P]

Sequence of P2Y purinoceptor 1 (P47900 whole entry): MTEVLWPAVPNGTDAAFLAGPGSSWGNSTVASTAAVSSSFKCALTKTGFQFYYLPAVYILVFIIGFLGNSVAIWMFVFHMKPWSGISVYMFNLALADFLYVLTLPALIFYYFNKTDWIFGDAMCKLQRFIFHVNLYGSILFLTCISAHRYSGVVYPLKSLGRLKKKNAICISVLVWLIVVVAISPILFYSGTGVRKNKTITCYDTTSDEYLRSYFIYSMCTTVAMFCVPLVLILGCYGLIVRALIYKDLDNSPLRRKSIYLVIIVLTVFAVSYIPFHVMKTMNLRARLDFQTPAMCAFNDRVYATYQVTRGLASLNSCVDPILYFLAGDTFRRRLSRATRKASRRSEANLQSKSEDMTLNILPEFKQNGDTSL

Ki [µM]	Structure (SMILES)
0.0095	CC1(C)CN(c2ccccc2NC(=O)Nc2ccc(OC(F)(F)F)cc2)c2c(O)cc(F)c(-c3ccc(Cl)s3)c21
0.052	CC1(C)CN(c2ccccc2NC(=O)Nc2ccc(OC(F)(F)F)cc2)c2c(O)c(F)cc(-c3nc4cc(Cl)ccc4s3)c21
0.013	CC1(C)CN(c2ccccc2NC(=O)Nc2ccc(OC(F)(F)F)cc2)c2c(O)ccc(-c3nc4ccc(Cl)cc4s3)c21
0.013	CC1(C)CN(c2ccccc2NC(=O)Nc2csc(Cl)n2)c2c(O)cc(F)c(-c3nc4cc(Cl)ccc4s3)c21
0.016	CC1(C)CN(c2ccccc2NC(=O)Nc2nc3ccc(Cl)nc3s2)c2c(O)cc(F)c(-c3nc4ccc(F)cc4s3)c21
0.098	CC1(C)CN(c2ccccc2NC(=O)Nc2nc3ccc(Cl)cc3s2)c2c(O)cc(F)c(-c3nc4cc(Cl)ccc4s3)c21
0.048	CC1(C)CN(c2ccccc2NC(=O)Nc2nc3ccc(F)cc3s2)c2c(O)cc(F)c(-c3nc4cc(Cl)ccc4s3)c21
0.039	CC1(C)CN(c2ccccc2NC(=O)Nc2nc3ccc(Cl)nc3s2)c2c(O)cc(F)c(-c3nc4cc(Cl)ccc4s3)c21
0.0099	COc1cncc(-c2ccc(O)c3c2C(C)(C)CN3c2ccccc2NC(=O)Nc2ccc(OC(F)(F)F)cc2)c1
0.017	CC1(C)CN(c2ccccc2NC(=O)Nc2nc3ccc(Cl)cc3s2)c2c(O)ccc(-c3nc4cc(F)ccc4s3)c21
0.0082	CC1(C)CN(c2ccccc2NC(=O)Nc2nc3ccc(Cl)nc3s2)c2c(O)cc(F)c(-c3ccc(Cl)s3)c21
0.013	CC1(C)CN(c2ccccc2NC(=O)Nc2ccc(OC(F)(F)F)cc2)c2c(O)ccc(-c3ccc(F)nc3)c21
0.078	CC1(C)CN(c2ccccc2NC(=O)Nc2nc3ccc(F)cc3s2)c2c(O)ccc(-c3nc4ccc(Cl)cc4s3)c21
0.09	CC1(C)CN(c2ccccc2NC(=O)Nc2nc3ccc(Cl)cc3s2)c2c(O)cc(F)c(-c3nc4ccc(F)cc4s3)c21
